This note sets out measurements from patent US20100291168A1, “ANTIMICROBIAL FORMULATIONS COMPRISING A COMBINATION OF A PYRIDINE THIOL AND A BIS-QUINOLINIUM SALT” (priority 2007, published 2010).

Assay [1] deals with P. acnes NCTC 737. Kind of assay: Minimum Inhibitory Concentration (MIC) assay. Type of assay: cell-based, Propionibacterium acnes. The settings on record: for MIC: anaerobic, 37° C., 72 hours. On the procedure: (§1) The propionibacteria were cultured and maintained on Wilkins-Chalgren Anaerobe Medium (agar and broth) at pH 6.0; all cultures were incubated anaerobically at 37° C. for 72 hours.
(a) Minimum Inhibitory Concentration (MIC) Assay
This is a standard international method for quantitatively assessing the antimicrobial activity of a compound in a liquid medium. The method used a sterile 96-well microtitre plate, capable of holding about 200 μl of liquid per well. The wells contained liquid culture medium and ranges of decreasing concentrations of the relevant test compound in doubling dilutions (eg, 1000, 500, 250, 125 . . . μg/ml, etc. down to 0.49 μg/ml). The culture medium was as described above.
The wells were inoculated with a liquid suspension of freshly grown micro-organism and incubated under the conditions described above. After incubation, the microtitre plate was examined visually (with the aid of a light box) for cloudiness in each well, which would indicate microbial growth. The MIC value was recorded as the lowest concentration of test compound required to inhibit microbial growth, ie, the lowest concentration for which the liquid in the well remained clear.
The assays were conducted in duplicate and included both negative (culture medium with no micro-organisms) and positive (culture medium plus diluting solvent plus micro-organism) controls.
(§2) The following experiments all used P. acnes NCTC 737 as the test organism.
(§3) MIC, MBC and DDA assays, as described above, were carried out using the test compounds (a) dequalinium chloride (DC), dissolved in ethanol and (b) zinc pyrithione (ZP), dissolved in DMSO. Both compounds were sourced from Sigma-Aldrich, UK.
(§4) The general method of Example 1 was repeated using another bis-quinolinium salt, dequalinium iodide (DI), which was also obtained from Sigma-Aldrich, UK. This compound was tested against P. acnes NCTC 737, both alone and in combination with ZP.

The test system of assay [2] is P. acnes NCTC 737. Description: Minimum Bactericidal Concentration (MBC) assay. The settings on record: for MBC: sub-culture after MIC assay. Type of assay: cell-based, Propionibacterium acnes. How it is done:
as §1
(b) Minimum Bactericidal Concentration (MBC) Assay
This assay, normally carried out after an MIC assay, determines the minimum concentration of a compound that is lethal to the micro-organism being tested.
These samples were then individually sub-cultured on antibiotic-free agar medium, under the incubation conditions described above. Following incubation they were examined visually for bacterial growth.
The ratio of MIC to MBC should ideally be as close to 1 as possible.
as §2, §3, §4

A further assay concerns P. granulosum PRP-005. Type of assay: cell-based, Propionibacterium granulosum. Particulars: P. granulosum PRP-005 (MLSK); 50 μg DC or 200 μg ZP per disc. How it is done: (§5) Some of these strains have known antibiotic resistance.
(§6) All the experiments were conducted in triplicate.

A further assay concerns P. granulosum PRP-006. Type of assay: cell-based, Propionibacterium granulosum. Particulars: P. granulosum PRP-006 (MLS); 50 μg DC or 200 μg ZP per disc. On the procedure:
as §5, §6

The test system of the next assay is P. granulosum PRP-019. Type of assay: cell-based, Propionibacterium granulosum. The settings on record: P. granulosum PRP-019 (MLSK); 50 μg DC or 200 μg ZP per disc. How it is done:
as §5, §6

The next assay relates to P. granulosum PRP-021. Type of assay: cell-based, Propionibacterium granulosum. Particulars: P. granulosum PRP-021 (MLS); 50 μg DC or 200 μg ZP per disc. How it is done:
as §5, §6

Another assay concerns P. granulosum PRP-043. Type of assay: cell-based, Propionibacterium granulosum. Particulars: P. granulosum PRP-043 (MLS); 50 μg DC or 200 μg ZP per disc. How it is done:
as §5, §6

The test system of a further assay is P. granulosum PRP-044. Type of assay: cell-based, Propionibacterium granulosum. The settings on record: P. granulosum PRP-044 (MLS); 50 μg DC or 200 μg ZP per disc. How it is done:
as §5, §6

The test system of a further assay is P. acnes PRP-007. Description: (S)DDA. Particulars: P. acnes PRP-007 (Clin); 50 μg DC or 200 μg ZP per disc. Type of assay: cell-based, Propionibacterium acnes. On the procedure: as §5, §6
A further assay deals with P. acnes PRP-046. Description: (S)DDA. Type of assay: cell-based, Propionibacterium acnes. The settings on record: P. acnes PRP-046 (resistance None); 50 μg DC or 200 μg ZP per disc. On the procedure:
as §5, §6

The next assay has as its system P. granulosum PRP-055. Kind of assay: (S)DDA. Type of assay: cell-based, Propionibacterium granulosum. The settings on record: P. granulosum PRP-055 (resistance None); 50 μg DC or 200 μg ZP per disc. How it is done: as §5, §6

Turning to `Cc1cc(N)c2ccccc2[n+]1CCCCCCCCCC[n+]1c(C)cc(N)c2ccccc21.[Cl-].[Cl-]` [DC, dequalinium chloride], the “activity of compound alone (MIC, MBC, DDA data)” value in the assay with P. acnes NCTC 737 [1] is on record as “active”. Moreover, the MIC with P. acnes NCTC 737 [1] was 7.8 µg/mL. The MIC/MBC ratio in the assay with P. acnes NCTC 737 [2] is recorded as 0.5. Further, the MBC with P. acnes NCTC 737 [2] came to 15.6 µg/mL. The DDA amounted to 20.55 mm in the assay with P. granulosum PRP-005; 26.82 mm in the assay with P. granulosum PRP-006; 18.91 mm in the assay on P. granulosum PRP-019; 27.95 mm in the assay on P. granulosum PRP-021; 23.02 mm with P. granulosum PRP-043; 17.37 mm with P. granulosum PRP-044. Besides, the DDA with P. acnes PRP-007 turned out to be 18.91 mm; in the assay with P. acnes PRP-046 it was 21.38 mm; in the assay with P. granulosum PRP-055, 29.08 mm.

As to zinc pyrithione [ZP], in the assay on P. acnes NCTC 737 [1], the “activity of compound alone (MIC, MBC, DDA data)” value is “active”. Further, the MIC in the assay on P. acnes NCTC 737 [1] is 0.98 µg/mL. The MIC/MBC ratio in the assay with P. acnes NCTC 737 [2] was determined as 0.125. Moreover, the MBC in the assay with P. acnes NCTC 737 [2] was 7.8 µg/mL. The DDA with P. granulosum PRP-005 is reported as 20.04 mm; in the assay with P. granulosum PRP-006 it was 32.58 mm; in the assay with P. granulosum PRP-019, 19.73 mm; in the assay on P. granulosum PRP-021, 29.70 mm; with P. granulosum PRP-043 it was 43.37 mm; with P. granulosum PRP-044, 18.50 mm. The values for the DDA with P. acnes PRP-007, in the assay with P. acnes PRP-046 and with P. granulosum PRP-055 were 10.79 mm, 35.56 mm and 50.05 mm, respectively.
